The text below walks through data of patent US20100022483A1, “Substituted Tetracycline Compounds” (Paratek Pharmaceuticals, Inc., priority 2008, published 2010).

By MIC is commonly meant the smallest concentration in the dilution series that meets the test's criterion for growth inhibition.

Data set [1] has as its system gram negative bacteria. Kind of data set: In vitro anti-bacterial activity assay (broth dilution MIC), gram negative bacteria. The data set is classed as cell-based, E. coli. A digest of the protocol:
(§1)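 Broth dilution MIC following CLSI M7-A2: compounds serially diluted, log-phase test strains added to final ~5×10^5 CFU/ml, incubated ~18 hours at 35° C in ambient air. Plates read on microplate reader or visually; MIC is lowest concentration inhibiting growth.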
On the technique in general: Dilution methods test growth across graded concentrations, often in twofold steps.

A short description of data set [2]: in vitro. As to conditions: Chinese hamster, Cytotox. CHO-K1. The data set is classed as cell-based.
Data set [3] can be described thus: Mammalian cytotoxicity assay (resazurin), COS-1 cells. The data set is classed as cell-based. Particulars: African green monkey, read-out: Cytotox. COS-1. The gist of the method:
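Cells seeded overnight at 37° C., 5% CO2, then exposed to serial compound dilutions for 24 hours. Medium replaced with resazurin (0.042 mg/ml in PBS with Ca and Mg) for 2 hours plus 30 minutes dark at room temperature; fluorescence read at ex 535/em 590 nm, IC50 taken as 50% growth inhibition.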
Background: Alamar Blue is a resazurin reagent that responds to reducing activity.

In data set [4] the test system is gram positive bacteria. Kind of data set: In vitro anti-bacterial activity assay (broth dilution MIC), gram positive bacteria. The data set is classed as cell-based, S. aureus. Particulars: 18 h. The gist of the method: as §1
For data set [5], the system named is 3T3 fibroblast cells. Kind of data set: In vitro phototoxicity assay (neutral red; UV light-treated vs dark control plates). The data set is classed as cell-based. Particulars: for Photo Toxicity UV Tox50: UV light 50 minutes; for Photo Toxicity Dark Tox50: dark control plate. A digest of the protocol: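 Neutral red viability readout (A535 after EtOH/acetic acid extraction) compares paired plates: one exposed 50 min to UV at 1.6–1.8 mW/cm^2, one held in darkness, both dosed with compound in HBSS and recovered overnight. 3T3 fibroblast cells used; phototoxicity taken as the difference.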

[6] abbreviates: Escherichia coli, 18 h, E. coli D1 209, read-out: Median MIC's G− E. coli D1 209.
The mark [7] stands for this setting: Escherichia coli, 18 h, E. coli MG 1655, read-out: Median MIC's G− E. coli MG 1655.
Where [8] appears, read: Escherichia coli, ATCC25922, 18 h, E. coli ATCC 25922, read-out: Median MIC's G− E. coli ATCC 25922.
Where [9] appears, read: Pseudomonas aeruginosa, 18 h, P. aeruginosa K201 PAO6609, read-out: Median MIC's G− P. aeruginosa K201 PAO6609.
The mark [10] stands for this setting: Staphylococcus aureus, S. aureus MRSA5, read-out: Median MIC's G+ S. aureus MRSA5.
[11] abbreviates: Staphylococcus aureus, S. aureus RN450, read-out: Median MIC's G+ S. aureus RN450.
Setting [12] is: Streptococcus pneumoniae, S. pneumoniae 157E-Strep, read-out: Median MIC's G+ S. pneumoniae 157E-Strep.

Each structure is given as a SMILES string. Values after ≈ are worked out from the molar mass of the structure shown. Read-outs that look alike come from different tables or passages of the source.

For the molecule `CN(CCOC(C)(C)C)Cc1cccc(-c2ccc(O)c3c2C[C@H]2C[C@H]4[C@H](N(C)C)C(O)=C(C(N)=O)C(=O)[C@@]4(O)C(O)=C2C3=O)c1` [BM], the MIC in data set [1] (setting [6]) amounted to 4 µg/mL (≈ 6.31 µM); in data set [1] (setting [7]), 8 µg/mL (≈ 12.6 µM); in data set [1] (setting [8]), 4 µg/mL (≈ 6.31 µM); in data set [1] (setting [9]) it was 64 µg/mL (≈ 101 µM); in data set [4] (setting [10]), 2 µg/mL (≈ 3.16 µM); in data set [4] (setting [11]) it was 0.13 µg/mL (≈ 0.205 µM). For the same molecule, the MIC in data set [4] (setting [12]) worked out at 0.06 µg/mL (≈ 0.0947 µM). Also, the IC50 at 24 h worked out at 21.6 µM in data set [2] and 22.8 µM in data set [3]. For the same molecule, in data set [5], the “Photo Toxicity UV Tox50” value is 5.93 µM. Besides, in data set [5], the “Photo Toxicity Dark Tox50” value was over 104.43 µM.
With `CN(C)[C@@H]1C(O)=C(C(N)=O)C(=O)[C@@]2(O)C(O)=C3C(=O)c4c(O)ccc(-c5cccc(C(=O)NCCN6CCCC6)c5)c4C[C@H]3C[C@@H]12` [CR], the MIC stood at 64 µg/mL (≈ 101 µM) in data set [1] (setting [6]); 16 µg/mL (≈ 25.4 µM) in data set [1] (setting [7]); 64 µg/mL (≈ 101 µM) in data set [1] (setting [8]); 64 µg/mL (≈ 101 µM) in data set [1] (setting [9]); 16 µg/mL (≈ 25.4 µM) in data set [4] (setting [10]); 1 µg/mL (≈ 1.59 µM) in data set [4] (setting [11]). The MIC in data set [4] (setting [12]) was 0.25 µg/mL (≈ 0.396 µM). Moreover, the IC50 at 24 h in data set [2] and in data set [3] was over 39.6 µM each time. Also, the “Photo Toxicity UV Tox50” value in data set [5] is over 127.91 µM. In addition, the “Photo Toxicity Dark Tox50” value in data set [5] was over 127.91 µM.
Turning to `CN(C)[C@@H]1C(O)=C(C(N)=O)C(=O)[C@@]2(O)C(O)=C3C(=O)c4c(O)ccc(-c5cccc(C(=O)NCC[N+](C)(C)C)c5)c4C[C@H]3C[C@@H]12` [DA], the minimum inhibitory concentration (MIC) in data set [1] (setting [6]) stood at 64 µg/mL; in data set [1] (setting [7]), 64 µg/mL; in data set [1] (setting [8]), 64 µg/mL; in data set [1] (setting [9]), 64 µg/mL; in data set [4] (setting [10]) it was 64 µg/mL; in data set [4] (setting [11]) it was 4 µg/mL. For the same molecule, in data set [4] (setting [12]), the MIC was 32 µg/mL. Besides, the IC50 at 24 h in data set [2] and in data set [3] was over 1.23 µM each time. The “Photo Toxicity UV Tox50” value in data set [5] is over 123.61 µM. For the same molecule, in data set [5], the “Photo Toxicity Dark Tox50” value was over 123.61 µM.
With `CN(C)[C@@H]1C(O)=C(C(N)=O)C(=O)[C@@]2(O)C(O)=C3C(=O)c4c(O)ccc(C(=O)CNCc5ccccn5)c4C[C@H]3C[C@@H]12` [BY], the minimum inhibitory concentration (MIC) is 64 µg/mL (≈ 114 µM) in data set [1] (setting [6]); 64 µg/mL (≈ 114 µM) in data set [1] (setting [7]); 64 µg/mL (≈ 114 µM) in data set [1] (setting [8]); 64 µg/mL (≈ 114 µM) in data set [1] (setting [9]); 32 µg/mL (≈ 56.9 µM) in data set [4] (setting [10]); 2 µg/mL (≈ 3.56 µM) in data set [4] (setting [11]). Besides, in data set [4] (setting [12]), the MIC stood at 4 µg/mL (≈ 7.11 µM). In addition, the IC50 at 24 h in data set [2] and in data set [3] was over 13.4 µM throughout. Also, in data set [5], the “Photo Toxicity UV Tox50” value is over 133.75 µM. Besides, in data set [5], the “Photo Toxicity Dark Tox50” value is over 133.75 µM.
As for `CN(C)[C@@H]1C(O)=C(C(N)=O)C(=O)[C@@]2(O)C(O)=C3C(=O)c4c(O)ccc(-c5cccc(C(=O)NCCO)c5)c4C[C@H]3C[C@@H]12` [CK], the minimum inhibitory concentration (MIC) in data set [1] (setting [6]) came to 64 µg/mL (≈ 111 µM); in data set [1] (setting [7]), 64 µg/mL (≈ 111 µM); in data set [1] (setting [8]), 64 µg/mL (≈ 111 µM); in data set [1] (setting [9]), 64 µg/mL (≈ 111 µM); in data set [4] (setting [10]), 8 µg/mL (≈ 13.9 µM); in data set [4] (setting [11]) it was 0.125 µg/mL (≈ 0.216 µM). Besides, the MIC in data set [4] (setting [12]) was 0.125 µg/mL (≈ 0.216 µM). Besides, the IC50 at 24 h in data set [2] and in data set [3] was over 14.7 µM in each case. Besides, the “Photo Toxicity UV Tox50” value in data set [5] was over 146.56 µM. Further, the “Photo Toxicity Dark Tox50” value in data set [5] is over 146.58 µM.
As to `COCCN(C)CC(=O)c1ccc(O)c2c1C[C@H]1C[C@H]3[C@H](N(C)C)C(O)=C(C(N)=O)C(=O)[C@@]3(O)C(O)=C1C2=O` [BO], the MIC was 64 µg/mL (≈ 118 µM) in data set [1] (setting [6]); 2 µg/mL (≈ 3.68 µM) in data set [1] (setting [7]); 2 µg/mL (≈ 3.68 µM) in data set [1] (setting [8]); 64 µg/mL (≈ 118 µM) in data set [1] (setting [9]); 4 µg/mL (≈ 7.36 µM) in data set [4] (setting [10]); 0.5 µg/mL (≈ 0.92 µM) in data set [4] (setting [11]). The MIC in data set [4] (setting [12]) stood at 0.25 µg/mL (≈ 0.46 µM). For the same molecule, the IC50 at 24 h in data set [2] and in data set [3] was over 154 µM throughout. Also, in data set [5], the “Photo Toxicity UV Tox50” value is over 154.09 µM. Further, the “Photo Toxicity Dark Tox50” value in data set [5] was over 154.09 µM.
